Assay results as given in patent US20110177950A1, “Imidazole and Triazole Compounds, Their Use and Agents Containing the Same” (priority 2008, published 2011).

What was measured:
Botrytis cinerea = test: Comparison with the prior art: C1 activity against gray mold pathogen in the microtiter test; format: cell-based; settings: day 7 after inoculation, 405 nm
Phakopsora pachyrhizi = test: Curative activity against soybean rust (greenhouse, Example G1); format: in vivo; settings: soybean seedlings, curative spray 300 ppm two days after inoculation, assessed after further 10 days; untreated 90% infected
Experimental: The active compounds were prepared separately as a stock solution comprising 25 mg of active compound which was made up to 10 ml using a mixture of acetone and/or DMSO and the emulsifier Uniperol® EL (wetting agent having emulsifying and dispersing action based on ethoxylated alkylphenols) in a volume ratio of solvent/emulsifier of 99/1. The mixture was then made up to 100 ml with water. This stock solution was diluted with the solvent/emulsifier/water mixture described to the active compound concentration stated below. Alternatively, the active compounds were used as commercially finished formulation and diluted with water to the stated active compound concentration.
Curative activity against soybean rust caused by Phakopsora pachyrhizi Leaves of potted soybean seedlings were inoculated with a spore suspension of soybean rust (Phakopsora pachyrhizi). The pots were then placed in a chamber with high atmospheric humidity (90 to 95%) and at 23 to 27° C. for 24 hours. During this time, the spores germinated and the germ tubes penetrated into the leaf tissue. The infected plants were then cultivated further in a greenhouse at temperatures between 23 and 27° C. and 60 to 80% relative atmospheric humidity. […] The extent of the rust fungus development on the leaves was then determined visually in % infection.

SMILES	Growth (%) at 8 ppm C1 (Botrytis cinerea) [%]	rust fungus development on the leaves in % infection (Phakopsora pachyrhizi) [%]
CC(C)(C)C(O)C(C/C=C/c1ccccc1)n1cncn1 (stereo not drawn) [reference compound]	84	
CC(C)(C)C(O)C(C/C=C/c1ccccc1F)n1cncn1 (stereo not drawn)	16	
CC(=CCC(C(O)C(C)(C)C)n1cncn1)c1ccc(F)cc1F (mixture of isomers) [I.A9]		0
